{"source": "patent US20110224232A1", "about": "(Board of Regents, The University of Texas System, priority 2008, published 2011)", "key": {"[1]": {"test": "Aerodynamic droplet size characterization, AERONEB Pro nebulizer and eight-stage cascade impactor", "format": "physicochemical", "experimental": "The performance of an inhalable formulation of the invention was evaluated using an AERONEB® Pro nebulizer and a cascade impactor. Aerodynamic droplet size distributions were determined using an adapted USP Apparatus 1 nonviable eight-stage cascade impactor (Thermo-Anderson, Smyrna, Ga.) with a spacer.\nAerodynamic droplet size distributions were determined using a USP Apparatus 1 nonviable eight-stage cascade impactor (Thermo-Anderson, Symrna, Ga.) to quantify total emitted dose (TED) from the nebulizer output, mass median aerodynamic diameter (MMAD), geometric standard deviation (GSD), and percentage droplets with an aerodynamic diameter less than 4.7 micrometer (defined as the percentage fine particle fraction or FPF). The aerodynamic droplet size distribution was conducted as adapted from the guidelines described in USP 30 Section 601: Aerosols, Nasal Sprays, Metered-dose Inhalers, and Dry Powder Inhalers."}, "[2]": {"details": "single dose of IV or oral voriconazole; cited from earlier work"}}, "data": [{"smiles": "CC(c1ncncc1F)C(O)(Cn1cncn1)c1ccc(F)cc1F", "note": "(stereo not drawn) [Voriconazole, 2-(2,4-difluorophenyl)-3-(5-fluoropyrimidin-4-yl)-1-(1H-1,2,4-triazol-1-yl)butan-2-ol]", "values": [{"measurement": "FPF (fine particle fraction)", "setting": "[1]; Average Results of Test 1 and 2, 6.25 mg/mL", "value": "> 70", "unit": "%"}, {"measurement": "estimated TED, based on measured residual volumes", "setting": "[1]; all dosing during the survival study", "value": 25.44, "unit": "mg"}, {"measurement": "typical Tmax in human plasma", "setting": "[2]", "value": "50 to 66", "unit": "min"}]}]}
